Measured values taken from paper PMC12858405, “Ideal efficacy photoswitching for chromocontrol of TRPC4/5 channel functions in live tissues” (Nature Chemical Biology, 2026).

Target: T1, TRPC4β-SYFP2 (Homo sapiens, UniProt Q9UBN4)
T1 construct: expressed in transfected cells; host or cells: HEK 293 (ATCC CRL 1573), transiently transfected (jetPRIME)
T1 sequence (Q9UBN4 1-893 isoform Q9UBN4-2): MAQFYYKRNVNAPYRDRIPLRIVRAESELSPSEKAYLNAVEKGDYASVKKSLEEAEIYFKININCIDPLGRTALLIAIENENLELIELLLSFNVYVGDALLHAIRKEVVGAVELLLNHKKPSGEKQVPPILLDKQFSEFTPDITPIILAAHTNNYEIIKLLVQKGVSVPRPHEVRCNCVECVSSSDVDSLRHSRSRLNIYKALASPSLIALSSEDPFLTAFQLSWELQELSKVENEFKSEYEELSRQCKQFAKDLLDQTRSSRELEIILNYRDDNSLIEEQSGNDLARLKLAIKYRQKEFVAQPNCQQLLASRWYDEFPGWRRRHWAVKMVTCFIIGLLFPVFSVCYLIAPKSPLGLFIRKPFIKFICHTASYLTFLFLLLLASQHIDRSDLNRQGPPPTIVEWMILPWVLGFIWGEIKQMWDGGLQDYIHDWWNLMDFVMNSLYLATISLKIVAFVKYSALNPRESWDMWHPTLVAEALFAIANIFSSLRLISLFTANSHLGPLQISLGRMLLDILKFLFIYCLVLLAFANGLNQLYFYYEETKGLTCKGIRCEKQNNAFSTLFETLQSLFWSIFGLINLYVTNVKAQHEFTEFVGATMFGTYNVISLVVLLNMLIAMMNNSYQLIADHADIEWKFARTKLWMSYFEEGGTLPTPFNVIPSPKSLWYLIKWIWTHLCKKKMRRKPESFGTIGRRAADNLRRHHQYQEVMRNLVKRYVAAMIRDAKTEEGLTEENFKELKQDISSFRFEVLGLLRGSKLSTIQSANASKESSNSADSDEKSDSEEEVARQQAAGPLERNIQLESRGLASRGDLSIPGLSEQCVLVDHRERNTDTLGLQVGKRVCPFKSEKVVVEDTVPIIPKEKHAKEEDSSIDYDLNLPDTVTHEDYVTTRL
Assay: Fura-2 [Ca2+]i recordings, HEK 293 transiently expressing TRPC4β-SYFP2
Type: cell-based
Details: AzHC 10-1000 nM, AM237 100 nM
Text: Müller, Niemeyer, et al., Schaefer & Thorn-Seshold 2025: Ideal Efficacy Photoswitching of TRPC4/5 in Tissue […]
1.4.4 Differences and selectivity between TRPC5 and TRPC4?
AM237 activates TRPC5 but inhibits EA mediated activation of TRPC4; Pico145 inhibits both TRPC4 and TRPC5. Thus, somewhat naively, it could be argued that it is the para substituent here which affects both the efficacy mode and the selectivity for TRPC4 and/or TRPC5.
Intriguingly, Z-AzPico activates TRPC4 and TRPC5 with low nanomolar potency whereas Z-AzHC only activates TRPC5 but not TRPC4. Therefore, the meta substituent is now responsible for the selectivity in this case. The cryo-EM structures of Pico145 and HC-070 in complex with TRPC5 indicated the same binding site but the southern phenyl ring bearing the OCF3/Cl group is flipped and pointing in opposite directions.
Z isomers, i.e. Z-buried vs. E-projected. Additionally, both E-AzPico and E-AzHC inhibit EA […]
It is not surprising that both ligands bind to either protein because there is a high sequence similarity among the TRPC family in the identified binding pocket for Pico145 /HC-070, and in the binding region, human TRPC4/5 differ only by a single amino acid (TRPC5: V579, TRPC4: I579). We […]
the result of differences in this residue. […]
Intracellular calcium ([Ca2+]i) was measured using the ratiometric Ca2+ dye Fura-2. […]

Cn1c(=O)n(CCCO)c(=O)c2c1nc(Oc1ccc(Cl)c(OC(F)(F)F)c1)n2Cc1ccc(Cl)cc1 [AM237, reference compound]
Effect on [Ca2+]i, TRPC4: do not activate

Cn1c(=O)n(CCCO)c(=O)c2c1nc(Oc1ccc(/N=N\c3ccccc3)c(Cl)c1)n2Cc1ccc(Cl)cc1 [Z*-AzHC]
Effect on [Ca2+]i, TRPC4: do not activate
